# From US20140066595A1, “Modulators of Protein Production in a Human Cell Line and Cell-free Extracts Produced Therefrom” (THERMO FISHER SCIENTIFIC BIOSCIENCES INC., priority 2012, published 2014)
# “Also recorded” adds a separate entry of the source.
# Columns and labels:
# HeLaS3-Gluc cells [1] = assay: Gluc expression of HeLaS3-Gluc cells treated with amiloride, with or without ER stressors; format: cell-based, human
# Description: (§1) HeLaS3-Gluc cells were plated at 10K/well and incubated overnight. Subsequently, they were pre-treated with amiloride and incubated for 1 hour. Amiloride was used at increasing doses, both alone and in the presence of cellular stressors tunicamycin or thapsigargin. When the ER stressors were included, incubation was for 2 hours, at which time Gluc was measured. The media was then changed, and amiloride and ER stressors were added again. This time incubation was overnight. The media was again changed and the amount of Gluc made was measured after two hours. Amiloride was used in amounts of 0-500 μM. Tunicamycin was used in an amount of 5 μM. Thapsigargin was used in an amount of 2 μM.
# HeLaS3-Gluc cells [2] = assay: Viability of HeLaS3-Gluc cells treated with amiloride, with or without ER stressors; format: cell-based, human
# Description: as §1
# [3] = amiloride alone, 0-500 μM, no stress, normalized to no amiloride at 18 hours (FIG. 1)
smiles,measurement,setting,value
"N=C(N)NC(=O)c1nc(Cl)c(N)nc1N [amiloride, 3,5-diamino-6-chloro-N-(diaminomethylene) pyrazine 2-carboxamide]",Gluc expression (luciferase output) under ER stress,"HeLaS3-Gluc cells [1]; amiloride 0-500 μM with tunicamycin 5 μM or thapsigargin 2 μM, 18 hours (FIG. 3)",rescued by treatment with an increasing amount of amiloride; also recorded: can restore Gluc expression
same,Gluc expression (luciferase output) of unstressed cells,HeLaS3-Gluc cells [1]; [3],did not lead to increased luciferase output
same,cell viability under ER stress,"HeLaS3-Gluc cells [2]; amiloride 0-500 μM with tunicamycin 5 μM or thapsigargin 2 μM, normalized to no stress at 18 hours (FIG. 2)",does not have an additional effect on cell viability
same,viability of unstressed cells,HeLaS3-Gluc cells [2]; [3],decrease in viability
